This is an account of results in ChEMBL document CHEMBL1201862, “PubChem BioAssay data set” (2004).

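Each compound was tested at five concentrations against cells in 96-well plates for 48 hours. GI50 = concentration required for 50% inhibition of growth.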 The source made the active and inactive calls. Cut-off read from the data, not from the text of the source: active = GI50 up to about 1.1 µM and inactive = higher.

Some test systems named below: A498; ACHN; COLO 205; DU-145; HCT-15; HT-29; K562; KM12; LOX IMVI; MDA-MB-231; MOLT-4; NCI-H23; OVCAR-8; RXF 393; SF-295; SF-539; SK-MEL-2; SNB-75; UACC-257; UACC-62.
What all share (assay): NCI tumour cell line growth inhibition, 48 h

In the case of `C=CCN1C(=O)CNC1=S`, the GI50 was > 100 µM (inactive) in the assay on A498; > 100 µM (inactive) in the assay with ACHN; > 100 µM (inactive) in the assay on COLO 205; > 100 µM (inactive) with DU-145; above 100 µM with HCT-15; > 100 µM (inactive) with HT-29. Moreover, the GI50 was 40.6 µM (inactive) in the assay with K562; > 100 µM (inactive) in the assay on KM12; > 100 µM (inactive) in the assay with LOX IMVI; > 100 µM (inactive) with MDA-MB-231; > 100 µM (inactive) in the assay on MOLT-4; > 100 µM (inactive) in the assay with NCI-H23. Moreover, the GI50 in the assay with OVCAR-8, in the assay with RXF 393, in the assay with SF-295, in the assay on SF-539, in the assay with SK-MEL-2 and in the assay on SNB-75 was > 100 µM (inactive) in each case. In addition, the GI50 in the assay on UACC-257 and in the assay with UACC-62 was > 100 µM (inactive) in each case.

Regarding `CCCCCCCCC/C=C1\CCC(CN2CCOCC2)C1=O` (stereo not given), the GI50 in the assay on A498 is 12 µM (inactive); in the assay with ACHN, 4.92 µM (inactive); in the assay on COLO 205 it was 3.73 µM (inactive); in the assay on DU-145 it was 4.65 µM (inactive); in the assay with HCT-15, 2.47 µM; in the assay on HT-29, 2.88 µM (inactive). For the same molecule, the GI50 in the assay with K562 is 2.45 µM (inactive); in the assay on KM12 it was 2.17 µM (inactive); in the assay on LOX IMVI it was 0.855 µM (active); with MDA-MB-231, 2.96 µM (inactive); in the assay on MOLT-4, 1.57 µM (inactive); in the assay with NCI-H23 it was 3.9 µM (inactive). In addition, the GI50 with OVCAR-8 was 1.82 µM (inactive); with RXF 393, 2.31 µM (inactive); with SF-295 it was 7.48 µM (inactive); with SF-539, 1.86 µM (inactive); in the assay with SK-MEL-2 it was 5.51 µM (inactive); in the assay with SNB-75, 6.17 µM (inactive). For the same molecule, the GI50 is 3.99 µM (inactive) with UACC-257 and 3.45 µM (inactive) in the assay with UACC-62.

In the case of `Cn1cnc([N+](=O)[O-])c1[Se]c1nc(N)nc2c1ncn2C1OC(CO)C(O)C1O` (stereo not given), the GI50 in the assay with A498 is > 100 µM (inactive); in the assay with ACHN, > 100 µM (inactive); in the assay on COLO 205 it was > 100 µM (inactive); in the assay with DU-145, > 100 µM (inactive); in the assay on HCT-15, above 100 µM; in the assay with HT-29, > 100 µM (inactive). Also, the GI50 with K562, in the assay on KM12, with LOX IMVI, in the assay on MDA-MB-231, with MOLT-4 and in the assay on NCI-H23 was > 100 µM (inactive) in each case. Besides, the GI50 in the assay on OVCAR-8, with RXF 393, with SF-295, with SF-539, with SK-MEL-2 and in the assay on SNB-75 was > 100 µM (inactive) in each case. Also, the GI50 with UACC-257 and in the assay on UACC-62 was > 100 µM (inactive) each time.

On to `Cc1nc(SCC(=O)Nc2ccc(Cl)cc2)c2sc(=S)n(-c3ccccc3)c2n1`, for which the GI50 is > 10 µM (inactive) in the assay with A498; > 10 µM (inactive) in the assay with ACHN; > 10 µM (inactive) in the assay on COLO 205; > 10 µM (inactive) in the assay with DU-145; above 10 µM in the assay with HCT-15; > 10 µM (inactive) in the assay with HT-29. Moreover, the GI50 is 6.41 µM (inactive) in the assay on K562; > 10 µM (inactive) with KM12; > 10 µM (inactive) with LOX IMVI; > 10 µM (inactive) in the assay on MDA-MB-231; > 10 µM (inactive) in the assay on MOLT-4; > 10 µM (inactive) in the assay on NCI-H23. Also, the GI50 in the assay on OVCAR-8, in the assay on RXF 393, in the assay on SF-295, with SF-539, in the assay on SK-MEL-2 and with SNB-75 was > 10 µM (inactive) each time. For the same molecule, the GI50 in the assay on UACC-257 and with UACC-62 was > 10 µM (inactive) each time.

On to `C=CC[C@@]1(OC(C)=O)C(=O)C(=O)OC1C1COC(C)(C)O1` (stereo not given in full), for which the GI50 with A498 was 21.9 µM (inactive); with ACHN, 16.6 µM (inactive); in the assay with COLO 205 it was 12.9 µM (inactive); with DU-145, 24.2 µM (inactive); in the assay on HCT-15, 15 µM; in the assay on HT-29 it was 19.3 µM (inactive). The GI50 is 15.3 µM (inactive) in the assay with K562; 15.7 µM (inactive) in the assay with KM12; 6.17 µM (inactive) in the assay on LOX IMVI; 15.8 µM (inactive) in the assay on MDA-MB-231; 14.3 µM (inactive) in the assay with MOLT-4; 20.3 µM (inactive) in the assay on NCI-H23. Further, the GI50 in the assay on OVCAR-8 is 20.1 µM (inactive); with RXF 393, 16.3 µM (inactive); in the assay on SF-295, 32.4 µM (inactive); in the assay on SF-539, 25.1 µM (inactive); with SK-MEL-2, 21.6 µM (inactive); in the assay on SNB-75, 31.8 µM (inactive). Also, the results for the GI50 in the assay on UACC-257 and with UACC-62 were 16.3 µM (inactive) and 16.5 µM (inactive), respectively.

`Cc1ccc([S+](c2ccccc2)c2cc(C)ccc2C)cc1.O=C(OC(C(=O)[O-])C(OC(=O)c1ccccc1)C(=O)O)c1ccccc1` (stereo not given): the GI50 with A498 is 39.2 µM (inactive); with ACHN it was 22.9 µM (inactive); with COLO 205 it was 4.26 µM (inactive); in the assay on DU-145, 34.2 µM (inactive); with HCT-15 it was above 100 µM; with HT-29, 7.69 µM (inactive). In addition, the GI50 was 2.53 µM (inactive) with K562; 3.91 µM (inactive) with KM12; 6.85 µM (inactive) in the assay on LOX IMVI; 16.9 µM (inactive) with MDA-MB-231; 26.5 µM (inactive) in the assay on MOLT-4; 3.82 µM (inactive) in the assay with NCI-H23. Also, the GI50 is 6.7 µM (inactive) in the assay on OVCAR-8; 34 µM (inactive) with RXF 393; 11.9 µM (inactive) with SF-295; 29 µM (inactive) in the assay with SF-539; 3.51 µM (inactive) in the assay with SK-MEL-2; 8.09 µM (inactive) in the assay on SNB-75. Moreover, the GI50 is 1.96 µM (inactive) with UACC-257 and 12.2 µM (inactive) in the assay with UACC-62.

For `CC(CO)C1=CC(C#CCOCc2ccccc2)N(C(=O)Oc2ccccc2)c2ccccc21` (stereo not given), the GI50 with A498 was 4.59 µM (inactive); with ACHN, 6.9 µM (inactive); with COLO 205, 15.1 µM (inactive); in the assay with DU-145, 57.5 µM (inactive); in the assay with HCT-15, 5.04 µM; with HT-29 it was 18.6 µM (inactive). Also, the GI50 is 8.26 µM (inactive) in the assay with K562; 14.9 µM (inactive) in the assay on KM12; 33.5 µM (inactive) with LOX IMVI; 39.6 µM (inactive) in the assay on MDA-MB-231; 4.63 µM (inactive) with MOLT-4; 8.89 µM (inactive) with NCI-H23. The GI50 is 30.5 µM (inactive) in the assay on OVCAR-8; 3.33 µM (inactive) in the assay with RXF 393; 7.24 µM (inactive) in the assay with SF-295; 41 µM (inactive) in the assay with SF-539; 23.3 µM (inactive) in the assay on SK-MEL-2; 22.9 µM (inactive) in the assay with SNB-75. Further, the values for the GI50 with UACC-257 and in the assay with UACC-62 were 13.2 µM (inactive) and 2.81 µM (inactive), respectively.
